Consider 18 compounds from patent publication US7091351B2, “Vanadium compounds for treating cancer” (Parker Hughes Institute, priority 1998, dated 2006).

What all share (format): cell-based, human
The test system of assay [1] is Tera-2 testicular cancer cells. The assay is described as follows: Flow cytometric TUNEL apoptosis assay, TERA-2 cells. Conditions: 24 h, TUNEL-positive nuclei. As for the experimental part:
(§1) A flow cytometric two-color terminal […] transferase (TdT)-mediated digoxigenin-uridine triphosphate (dUTP) nick-end labeling assay (TUNEL) was employed to detect apoptotic nuclei. Gavrieli, Y., Sherman, Y., Ben-Sasson, S. A. Identification of programmed cell death in situ via specific labeling of nuclear DNA fragmentation. J. Cell Biol., 119: 493–501, 1992. Exponentially growing cells (10^6/ml) were incubated in DMSO alone (0.1%) or treated with 100 μM each of the 16 vanadocenes (VDB, VDC, VMDC, VDI, VDA, VDCN, VDOCN, VDSCN, VDSeCN, VDT, VDCO, VDFe, VD(acac), VDH, VD(dpy), and VD(dtc) in 0.1% DMSO for 24 h. Cells were washed in PBS, fixed in 4% paraformaldehyde in PBS for 15 min on ice. Following two washings in PBS, they were permeabilized with 0.1% Triton X-100 in 0.1% sodium citrate for 2 min on ice, and washed twice in PBS. Labeling of exposed 3′-hydroxyl (3′-OH) ends of fragmented nuclear DNA was performed using TdT and fluorescein isothiocyanate (FITC)-conjugated dUTP according to the manufacturer's recommendations (Boehringer Mannheim, Indianapolis, Ind.). Cells were counterstained with 5 μg/ml PI. Control samples included: (i) untreated cells; (ii) cells incubated with the reaction mixture without the TdT enzyme. Cells were analyzed with a FACS Calibur flow cytometer (Becton Dickinson, Mountain View, Calif.). Relative DNA content (PI) was detected with band-pass filter 585/42, and dUTP incorporation (FITC) was detected with band-pass filter 530/30. Fluorescence was compensated for in the acquisition software using single-label control samples. Data were acquired in listmode, gated to 10,000 events per sample, and analyzed with the use of CELLQuest software program (Becton Dickinson). […] Vanadocene-induced apoptosis is shown by an increase in the number of cells staining with FITC-dUTP. The M1 and M2 gates were used to demarcate non-apoptotic and apoptotic PI-counterstained cell populations, respectively. TUNEL assays were performed using two testicular cell lines Tera-2 and Ntera-2 following exposure to each of the 16 vanadocenes. In other experiments, MC540 binding (as an early marker of apoptosis) and PI permeability (as a marker of advanced stage apoptosis) were simultaneously measured in human cancer cells 24 hours after exposure to vanadocenes, as previously described. Uckun, F. M., Narla, R. K., Jun, X., Zeren, T., Venkatachalam, T., Waddick, K. G., Rostostev, A., Myers, D. E. Cytotoxic activity of EGF-genstein against breast cancer cells. Clin. Cancer Res. 4:901–912, 1998. Vassilev, A., Ozer, Z., Navara, C., Mahajan, S., and Uckun, F. M. Bruton's tyrosine kinase as an inhibitor of the Fas/CD95 death-inducing signaling complex. J. Biol. Chem. 274:1646–56, 1999. Whole cells were analyzed using a FACStar Plus flow cytometer (Becton Dickinson, San Jose, Calif.). All analyses were done using 488 nm excitation from an argon laser. MC540 and PI emissions were split with a 600 nm short pass dichroic mirror and a 575 nm band pass filter was placed in front of one photomultiplier tube to measure MC540 emission and a 635 nm band pass filter was used for PI emission.

The test system of assay [2] is Tera-2 testicular cancer cells. The assay is described as follows: MTT cytotoxicity assay of vanadocenes, TERA-2 cells. Conditions: 24 h, 1.9-250 μM. As for the experimental part:
(§2) Human testicular cancer cell lines, Tera-2 (embryonal carcinoma) and Ntera-2 (pluripotent embryonal carcinoma) were obtained from the American Type Culture Collection (ATCC) (Rockeville, Md.) and propagated in T-25, T-75, or T-150 cm^2 tissue culture flasks (Corning Corp., Corning, N.Y.) in McCoy's 5A medium and Dulbecco's modified Eagle's medium respectively. Both media were supplemented with 10% fetal calf serum (FCS), 4 mM glutamine, 100 U/ml penicillin G, and […] streptomycin sulfate. All tissue culture reagents were obtained from Life Technologies Inc. (GIBCO-BRL), Gaithersburg, Md. Cell lines were cultivated for a minimum of two passages after thawing prior to experimentation. Other cell lines that were used in this study were the human B-lineage acute lymphoblastic leukemia (ALL) cell line NALM-6. Uckun, F. M., Evans, W. E., Forsyth, C. J., Waddick, K. G., Tuel-Ahlgren, L., Chelstrom, L. M., Burkhardt, A., Bolen, J., Myers, D. E. Biotherapy of B-cell precursor leukemia by targeting genistein to CD19-associated tyrosine kinase. Science (Washington DC) 267:886–91, 1995; T-lineage ALL cell line MOLT-3, Waurzyniak, B., Shneider, E. A., Tumer, N., Yanishevski, Y., Gunther, R., Chelstrom, L., Wendorf, H., Myers, D. E., Irvin, J. D., Messinger, Y., Ek, O., Zeren, T., Chandan-Langlie, M., Evans, W. E., Uckun, F. M. In vivo toxicity, pharmacokinetics, and antileukemic activity of TXU (anti-CD7)-pokeweed antiviral protein immunotoxin. Clinical Cancer Research 3:881–890, 1997; AML cell line HL-60, Perentesis, J. P., Waddick, K. G., Bendel, A. E., Shao, Y., Warman, B. E., Chandan-Langlie, M., and Uckun, F. M. Induction of apoptosis in multi-drug resistant andradiation-resistant acute myeloid leukemia cells by a recombinant fusion toxin directed against the granulocyte macrophage colony stimulating factor receptor. Clin. Cancer Res. 3:347–355, 1997; breast cancer cell lines MDA-MB-231 and BT-20, Uckun, F. M., Narla, R. K., Jun, X., Zeren, T., Venkatachalam, T., Waddick, K. G., Rostostev, A., Myers, D. E. Cytotoxic activity of EGF-genstein against breast cancer cells. Clin. Cancer Res. 4:901–912, 1998; glioblastoma cell lines U87 and U373, Narla, R. K., Liu, X., Myers, D. E., and Uckun, F. M. 4-(3′-Bromo-4′hydroxylphenyl)-amino-6,7-dimethoxyquinazoline (WHI-P154): A novel quinazoline derivative with potent cytotoxic activity against human glioblastoma cells. Clin. Cancer Res. 4:1405–1414, 1998.
(§3) MTT (3-[4,5-dimethyl thiazol-2-yl]-2,5-diphenyltetrazolium bromide)-based colorimetric assays were used for evaluation of the cytotoxicity of vanadocene compounds. Mosmann, T. Rapid colorimetric assay for cellular growth and survival: application to proliferation and cytotoxicity assays. J. Immunol. Methods, 65: 55–63, 1983. Briefly, cells were harvested with 0.125% (w/v) trypsin-0.02% EDTA (GIBCO-BRL) from exponential-phase maintenance cultures and centrifuged (300 g×5 min). After suspension and counting, cells were dispensed within triplicate 96-well tissue culture plates in 100 μl volumes. After 24 h incubation, the culture medium was discarded and replaced with 100 μl of fresh medium containing serial two-fold dilutions of drugs in medium to yield 1.9 μM to 250 μM. All compounds were reconstituted in DMSO to a concentration of 100 mM, and the stock solution was made fresh for each experiment. Control wells consisted of medium containing 0.25% of DMSO alone were used for solvent control. Culture plates were then incubated for 24 h before adding 10 μl of MTT solution (5 mg/ml in PBS) to each well. Wells containing only medium and MTT were used as controls for each plate. The tetrazolium/formazan reaction was allowed to proceed for 4 h at 37° C., and then 100 μl of the solubilization buffer (10% sodium dodecyl sulfate in 0.1% HCl) were added to all wells and mixed thoroughly to dissolve the dark blue formazan crystals. […]
In general terms: Formazan colour is commonly taken as a measure of viable cells.

In another assay the test system is U373 glioblastoma cells. Nature of the assay: MTT cytotoxicity assay of vanadocenes, U373 cells. The conditions noted are these: 24 h. On the procedure:
as §2, §3

The test system of assay [3] is Ntera-2 testicular cancer cells. The assay is described as follows: Flow cytometric TUNEL apoptosis assay, NTERA-2 cells. The conditions noted are these: 24 h, TUNEL-positive nuclei. On the procedure: as §1
Background: In flow cytometry, cells or beads pass a laser one at a time.

The test system is the same in assay [4]. The assay is described as follows: MTT cytotoxicity assay of vanadocenes, NTERA-2 cells. The conditions noted are these: 24 h, 1.9-250 μM. On the procedure:
as §2, §3

Some results are limits rather than exact numbers.

The IC50 is the midpoint of a concentration-inhibition curve. Consider VCp2(dtc) [VD(dtc)], for which the “% Apoptosis at 100 μM TERA-2” value in assay [1] is recorded as 83 (82, 84) %. The figures for the IC50 (in assay [2]; with U373 glioblastoma cells; in assay [4]) were 60 µM, 7 µM and 83 µM, respectively. Also, the “% Apoptosis at 100 μM NTERA-2” value in assay [3] is listed as 67 ± 13 (N = 3) %.

With VCp2(PH) [VDPH], the “% Apoptosis at 100 μM TERA-2” value in assay [1] is given as 88 ± 3 (N = 3) %. The IC50 in assay [2] is > 250 µM; in assay [4] it was 61 µM. In assay [3], the “% Apoptosis at 100 μM NTERA-2” value was 90 ± 3 (N = 4) %.

Regarding `CC(=O)[CH-]C(C)=O.O=S(=O)([O-])C(F)(F)F.[V+4].c1cc[cH-]c1.c1cc[cH-]c1` [VD(acac), VCp2(acac)(O3SCF3)], the “% Apoptosis at 100 μM TERA-2” value in assay [1] amounted to 72 ± 17%. The IC50 in assay [2] was determined as 64 µM; in assay [4], 75 µM. Moreover, in assay [3], the “% Apoptosis at 100 μM NTERA-2” value was 48 ± 13 (N = 3) %.

As to `[O-]c1ccccc1[O-].[V+2].c1cc[cH-]c1.c1cc[cH-]c1` [VD(cat), Cp2V(cat)], the values for the IC50 in assay [2] and in assay [4] were 79 µM and 93 µM, respectively. Also, the “% Apoptosis at 100 μM NTERA-2” value in assay [3] is 12 (9, 15) %.

Take V(MeCp)2Cl2.0.5 H2O [VMDC]: the “% Apoptosis at 100 μM TERA-2” value in assay [1] is on record as 45 (27, 61) %. Moreover, the IC50 is 123 µM in assay [2], 61 µM in the assay with U373 glioblastoma cells and 86 µM in assay [4]. Further, the “% Apoptosis at 100 μM NTERA-2” value in assay [3] is recorded as 13 (13, 14) %.

For V(Me5Cp)OCl [VPMOC], the “% Apoptosis at 100 μM TERA-2” value in assay [1] is 5 (5, 6) %. For the same compound, the IC50 in assay [2] is > 250 µM; in assay [4] it was 77 µM. Further, the “% Apoptosis at 100 μM NTERA-2” value in assay [3] is on record as 6 (6, 7) %.

Regarding ZrCp2Cl2 [ZDC], the IC50 (in assay [2]; in the assay on U373 glioblastoma cells; in assay [4]) was > 250 µM in each case.

Regarding `CC#N.[Cl-].[Cl-].[Cl-].[Cl-].[Cl-].[Fe+3].[V+4].c1cc[cH-]c1.c1cc[cH-]c1` [VDFe, VCp2Cl (CH3CN)(FeCl4)], the “% Apoptosis at 100 μM TERA-2” value in assay [1] was 85 (84, 87) %. Besides, the values for the IC50 in assay [2] and in assay [4] were 100 µM and 113 µM, respectively. Moreover, in assay [3], the “% Apoptosis at 100 μM NTERA-2” value is 87 (81, 94) %.

Consider `[Cl-].[N-]=C=O.[V+2].c1cc[cH-]c1.c1cc[cH-]c1` [VDCO, VCp2(NCO)Cl], for which the “% Apoptosis at 100 μM TERA-2” value in assay [1] was 73 (67, 78) %. For the same compound, the IC50 in assay [2] turned out to be 50 µM; in assay [4], 90 µM. In addition, the “% Apoptosis at 100 μM NTERA-2” value in assay [3] is on record as 98 (97, 99) %.

For `O=S(=O)(O)C(F)(F)F.O=S(=O)(O)C(F)(F)F.[V+2].c1cc[cH-]c1.c1cc[cH-]c1` [VDT, VCp2(O3SCF3)2], the “% Apoptosis at 100 μM TERA-2” value in assay [1] is given as 71 (71, 71) %. Also, the IC50 was 76 µM in assay [2] and 137 µM in assay [4]. Moreover, the “% Apoptosis at 100 μM NTERA-2” value in assay [3] was 55 ± 26 (N = 4) %.

Take VCp2(NCS)2.0.5H2O [VDSCN]: the “% Apoptosis at 100 μM TERA-2” value in assay [1] is recorded as 64 (58, 69) %. Moreover, the IC50 in assay [2] stood at 23 µM; in the assay with U373 glioblastoma cells it was 19 µM; in assay [4], 17 µM. In addition, the “% Apoptosis at 100 μM NTERA-2” value in assay [3] is given as 53 (46, 60) %.

Regarding HfCp2Cl2 [HDC], the IC50 (in assay [2]; with U373 glioblastoma cells; in assay [4]) was > 250 µM each time.

Take MoCp2Cl2 [MDC]: the IC50 (in assay [2]; in the assay on U373 glioblastoma cells; in assay [4]) was > 250 µM throughout.

In the case of VCp2(NCO)2 [VDOCN], the “% Apoptosis at 100 μM TERA-2” value in assay [1] was 85 (80, 90) %. Besides, the IC50 came out at 31 µM in assay [2] and 63 µM in assay [4]. For the same compound, the “% Apoptosis at 100 μM NTERA-2” value in assay [3] was 95 (94, 96) %.

As for `Cc1c(C)c(C)[c-](C)c1C.Cc1c(C)c(C)[c-](C)c1C.[Cl-].[Cl-].[V+2]` [VPMDC, V(Me5Cp)2Cl2], in assay [1], the “% Apoptosis at 100 μM TERA-2” value is 35 (35, 36) %. The IC50 in assay [2] was 127 µM; with U373 glioblastoma cells it was 172 µM; in assay [4] it was 44 µM. Further, the “% Apoptosis at 100 μM NTERA-2” value in assay [3] was 34 (33, 35) %.

VCp2(bpy)(O3SCF3)2 [VD(bpy)]: the IC50 was 37 µM in assay [2] and 53 µM in assay [4]. The “% Apoptosis at 100 μM NTERA-2” value in assay [3] is given as 78 (77, 78) %.

Consider VCp2(H) [VDH], for which the “% Apoptosis at 100 μM TERA-2” value in assay [1] is on record as 84 ± 2 (N = 3) %. Moreover, the results for the IC50 (in assay [2]; in the assay with U373 glioblastoma cells; in assay [4]) were 118 µM, > 250 µM and 125 µM, respectively. Also, in assay [3], the “% Apoptosis at 100 μM NTERA-2” value is listed as 20 ± 5 (N = 3) %.

Turning to TiCp2Cl2 [TDC], the IC50 (in assay [2]; in the assay with U373 glioblastoma cells; in assay [4]) was > 250 µM throughout.
